How the values were obtained:
ERK1/2 = experiment: Phosphorylated ERK1/2 by Western blot; assay type: cell-based, human; conditions: Adcav-1- or AdRSV-infected cells
Procedure: Unless specifically indicated, immunoprecipitation (IP) was performed as follows. Cells were washed with ice-cold phosphate-buffered saline (PBS), lysed on the plates by incubation for 10 min on ice with IP lysis buffer, which consists of 20 mM Tris-HCl (pH 7.5), 150 mM NaCl, 1 mM EDTA, 1 mM EGTA, 1% Triton X-100, 1 mM β-glycerophosphate, 60 mM octylglucoside and protease inhibitor cocktail. Cells were then scraped off the dish, transferred to microcentrifuge tubes, placed on ice for 20 min, and centrifuged for 10 min at high speed in a microcentrifuge at 4° C. The supernatant (cell lysate) was transferred to a fresh tube and frozen at −80° C. until use. Typically, 500 μg of cell lysate proteins were diluted to 500 μl with IP lysis buffer and precleared by incubation with 3 μg of the corresponding immunoglobulin G (IgG) from […] for 30 min at 4° C. on a rocker, followed by the addition of 50 μl of IP lysis buffer-prewashed protein A or G plus agarose and incubation for another 1 h. The cleared cell lysate was incubated with 3 μg of specific antibody or the corresponding IgG overnight at 4° C. on a rocker. […] For regular Western blot analysis, protein concentration in cell lysates was determined by the Bio-Rad protein assay, and 30 μg of protein from each sample was loaded on the gel. β-Actin served as a loading control.

LNCaP cells = experiment: Viability assay with MEK inhibitors
Procedure: (§1) Cells were infected or transfected in six-well plates. Forty-eight hours after infection or transfection, cells were treated with 1 μM Tg for the time indicated. At the end of the treatments MTS assays were performed using CellTiter 96 aqueous one solution reagent from Promega by a modified version of the procedure. Briefly 300 μl of MTS solution was added to each well and incubated for 1 h at 37° C. One milliliter of reaction or medium mix was transferred from each well to an Eppendorf tube and then centrifuged in a microcentrifuge for 5 min at 4,000 rpm (˜3,000×g). One hundred microliters of supernatant was transferred to each well of a 96-well plate, and the relative viability was determined by the measurement of absorbance at 490 nm in a 96-well plate reader. […] Apoptotic morphology was analyzed with phase-contrast fluorescence microscopy after incubation with 0.2 μg of 4′6′-dismidino-2-phenylindole (DAPI) per ml. The activities of caspases in the cell lysates were analyzed by Western blotting using specific antibodies recognizing procaspases or cleaved forms of caspases, followed by quantitative intensity analysis using software (GelExpert; Nucleo Vision) and normalized to the intensity of β-actin in the same sample.

PI3-K = PI3-K activity assay (TLC); assay type: cell-based, human; conditions: 1 μM Tg for 48 h; cav-1-expressing and control LNCaP cells
Procedure: Cell lysates were prepared as described above for the Akt activity assay. PI3-K activity assays were performed as described below. Briefly, 500 μg of cell lysate proteins were immunoprecipitated with monoclonal antibody against phosphotyrosine for 3 h at 4° C. with gentle rocking, and the beads were washed twice with lysis buffer and twice with PI3-K assay buffer (20 mM Tris [pH 7.5], 100 mM NaCl, 0.5 mM EGTA, 20 mM MgCl2). PI was dissolved in chloroform (5 mg/ml) and diluted to 0.5 mg/ml with PI3-K assay buffer, followed by sonication. […] Five microliters of washed chloroform phase from each sample was loaded on a TLC plate and analyzed by ascending chromatography in chloroform-methanol-29.5% ammonium hydroxide-water (90:90:8:19), followed by autoradiography.
Protein expression levels and kinase activities of PI3-K, PDK1, and Akt were determined in cav-1-expressing or vector control LNCaP cells before and after treatment with 1 μM Tg for 48 h (+Tg): (A) PI3-K kinase assay by TLC (top gel); (B) PDK1 IP kinase assay; (C) Akt IP kinase assay using recombinant GSK3 as a substrate. Total protein and phosphorylated protein (indicated by P-prefix before protein name) of each kinase were analyzed and presented in each blot. β-Actin served as a loading control. […]

PDK1 = PDK1 IP kinase assay; assay type: cell-based, human; conditions: 1 μM Tg for 48 h; LNCaP cells
Procedure: Cell lysates were prepared as described above. PDK1 activity assay was performed according to the manufacturer's protocol (Upstate Biotechnology). Radioactivity that remained on the P81 paper was read with TopCount (Packard).
Protein expression levels and kinase activities of PI3-K, PDK1, and Akt were determined in cav-1-expressing or vector control LNCaP cells before and after treatment with 1 μM Tg for 48 h (+Tg): (A) PI3-K kinase assay by TLC (top gel); (B) PDK1 IP kinase assay; (C) Akt IP kinase assay using recombinant GSK3 as a substrate. Total protein and phosphorylated protein (indicated by P-prefix before protein name) of each kinase were analyzed and presented in each blot. β-Actin served as a loading control. There was no difference in protein expression levels for PI3-K in cav-1-expressing cells to control vector-infected cells (FIG. 2A). Although PI3-K activity was reduced by Tg treatment, no difference was found between cav-1-expressing and control cells (FIG. 2A). Tg treatment also led to reduced PDK1 activity; however, compared with control RSV-infected cells, PDK1 activity was approximately 17% higher in cav-1-expressing cells and approximately 30% higher in Tg-treated cav-1-expressing cells (FIG. 2B). In the same lysates, there was no difference in PDK1 protein expression (FIG. 2B).

[1] = Viability assay with MEK inhibitors; conditions: human
Procedure: as §1

PP2A (core enzyme) = biological target: T1, PP2A (core enzyme) (Homo sapiens, UniProt P67775); experiment: In vitro malachite green phosphatase assay with purified cav-1; assay type: biochemical; conditions: 100 ng purified cav-1, 0.01 U PP2A
T1 construct: purchased Upstate Biotechnology
T1 sequence (P67775 whole entry): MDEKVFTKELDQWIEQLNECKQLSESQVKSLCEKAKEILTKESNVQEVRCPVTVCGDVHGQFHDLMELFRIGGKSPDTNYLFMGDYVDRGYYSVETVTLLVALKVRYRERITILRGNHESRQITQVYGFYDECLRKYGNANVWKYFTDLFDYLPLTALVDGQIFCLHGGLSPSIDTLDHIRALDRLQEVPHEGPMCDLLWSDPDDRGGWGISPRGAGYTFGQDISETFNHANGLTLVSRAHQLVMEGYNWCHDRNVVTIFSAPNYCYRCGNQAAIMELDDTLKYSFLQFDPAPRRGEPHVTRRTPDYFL
T1 sequence (P30153 2-589 partner limits assumed): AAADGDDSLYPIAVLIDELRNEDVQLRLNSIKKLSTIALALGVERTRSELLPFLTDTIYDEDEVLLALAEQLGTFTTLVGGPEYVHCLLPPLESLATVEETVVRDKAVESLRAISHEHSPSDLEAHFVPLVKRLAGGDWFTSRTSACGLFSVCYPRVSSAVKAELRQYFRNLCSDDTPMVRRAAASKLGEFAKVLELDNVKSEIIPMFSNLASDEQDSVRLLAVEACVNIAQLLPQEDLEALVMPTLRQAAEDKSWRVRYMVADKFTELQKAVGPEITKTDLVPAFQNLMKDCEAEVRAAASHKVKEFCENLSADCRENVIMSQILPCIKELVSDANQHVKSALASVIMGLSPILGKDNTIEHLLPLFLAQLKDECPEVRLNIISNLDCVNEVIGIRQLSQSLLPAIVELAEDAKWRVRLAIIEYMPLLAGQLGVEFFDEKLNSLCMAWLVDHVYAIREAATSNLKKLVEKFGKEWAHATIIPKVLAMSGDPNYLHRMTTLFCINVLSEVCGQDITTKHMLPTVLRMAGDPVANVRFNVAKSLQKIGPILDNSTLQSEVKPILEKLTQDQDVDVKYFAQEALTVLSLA
Procedure: (§2) PP1 (catalytic subunit) (0.02 U) or PP2A (core enzyme) (0.01 U) was incubated with or without 100 ng of purified cav-1 protein for 1 h at 4° C. Phosphatase assay buffer and a phosphopeptide (K-R-pT-1-R-R) were added to a final volume of 50 μl. Reactions were initialed by the addition of 200 μM phosphopeptide, and reaction mixtures were incubated at room temperature for 10 min. Reactions were terminated by the addition of 100 μl of malachite green solution. Activities of PP1 and PP2A were determined by the measurement of absorbance at 620 nm.
(§3) To determine whether the effects of cav-1 on PP1 and PP2A are direct and whether cav-1 interacts with and inhibits PP1 and PP2A in vitro, in vitro IP experiments were performed using purified His-V5-tagged human cav-1, PP1 (C subunit), and PP2A (core enzyme). […] The results of in vitro phosphatase assays indicate that the addition of cav-1 reduced PP1 and PP2A activities by approximately 30% under these basic conditions (FIG. 3F). Briefly, cells were treated with purified cav-1 (¢) or not treated with purified cav-1 (£) and relative activity was determined by measuring the optical density at 620 nm (OD620).

PP1 (catalytic subunit) = biological target: T2, PP1 (catalytic subunit) (Oryctolagus cuniculus, UniProt P62139); experiment: as above; assay type: biochemical, rabbit; conditions: 100 ng purified cav-1, 0.02 U PP1
T2 construct: purchased New England BioLabs
T2 sequence (P62139 whole entry): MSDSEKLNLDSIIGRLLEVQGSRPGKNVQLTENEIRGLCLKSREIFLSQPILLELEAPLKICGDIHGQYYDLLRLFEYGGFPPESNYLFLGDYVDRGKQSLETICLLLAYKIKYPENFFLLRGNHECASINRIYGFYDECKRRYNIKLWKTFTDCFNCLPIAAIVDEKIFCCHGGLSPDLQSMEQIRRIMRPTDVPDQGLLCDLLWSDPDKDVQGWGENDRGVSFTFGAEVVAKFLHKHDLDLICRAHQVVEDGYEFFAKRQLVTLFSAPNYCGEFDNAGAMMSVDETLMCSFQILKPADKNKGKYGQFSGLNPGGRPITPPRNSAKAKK
Procedure: as §2, §3

Molecule: COc1cccc(-c2cc(=O)c3ccccc3o2)c1N [PD98059]
- phosphorylated ERK1/2 (ERK1/2): reduction
- reduction of cell viability (LNCaP cells): ~20%

Molecule: C/C=C(/C)C(=O)O[C@H]1C(C)=C2[C@H]([C@@H]1OC(=O)CCCCCCC)[C@@](C)(OC(C)=O)C[C@H](OC(=O)CCC)[C@@]1(O)[C@H]2OC(=O)[C@@]1(C)O [Tg, thapsigargin]
- PI3-K activity (PI3-K): reduced
- PDK1 activity (PDK1): reduced

Molecule: N#CC(=C(/N)Sc1ccccc1N)/C(C#N)=C(\N)Sc1ccccc1N [U0126]
- phosphorylated ERK1/2 (ERK1/2): reduction
- cytotoxicity [1]: ~15%

B1: purified cav-1: purified His-V5-tagged human cav-1 protein (protein, UniProt Q03135 2-178, looked up)
Caveolin-1: SGGKYVDSEGHLYTVPIREQGNIYKPNNKAMADELSEKQVYDAHTKEIDLVNRDPKHLNDDVVKIDFEDVIAEPEGTHSFDGIWKASFTTFTVTKYWFYRLLSALFGIPMALIWGIYFAILSFLHIWAVVPCIKSFLIEIQCISRVYSIYVHTVCDPLFEAVGKIFSNVRINLQKEI
modifications: His-V5 tag
notes: purified His-V5-tagged human cav-1 protein
- reduction of PP2A activity (PP2A (core enzyme)): approximately 30%
- reduction of PP1 activity (PP1 (catalytic subunit)): approximately 30%

From patent US20050202407A1, “Methods and assays for screening anti-neoplastic therapeutic agents” (Baylor College of Medicine, priority 2003, published 2005)
